{"source": "patent US7354904B2", "about": "“Bacteriocin inducer peptides” (priority 2005, dated 2008)", "key": {"C. jejuni": {"test_system": "C. jejuni", "test": "Spot Test, antagonistic activity of isolated signal peptides", "assay_type": "cell-based, Campylobacter jejuni", "settings": "isolated signal peptide", "description": "(§1) The antagonistic activity of the bacteriocins produced when using the signal peptide and an inducer strain of bacteria against C. jejuni and S. enteritidis was assessed using a Spot Test. The steps included taking various concentrations of pure preparation (μg/ml) of the bacteriocin in approximately 10 microliters of volume plated onto blood-supplemented Campylobacter agar or Nutrient agar (MPA or Meta Peptone Agar) previously seeded with cells of target bacteria. Plates containing cultures of C. jejuni were grown at about 42° C., under microaerobic conditions. Plates containing S. enteritidis were grown at about 37° C. under aerobic conditions. Activity of the bacteriocin was expressed in arbitrary units (AU) per one milliliter of the preparation at which a visible zone of inhibition of the growth of culture appears (Henderson et al., Archives of Biochemistry and Biophysics, Volume 295, 5-12, 1992; herein incorporated by reference). Specific activity can also expressed as arbitrary units per milligram of pure bacteriocin.\n(§2) Its activity was about 200 AU/ml and its molecular weight was about 2.5 kDa, as determined by SDS-PAGE electrophoresis. The isoelectric point (pI) was about 7.9 (FIGS. 1A and 1B).\n(§3) Its molecular weight was about 3.1 kDa as measured by SDS-PAGE and the isoelectric point (pI) was about 8.1 (FIGS. 2A and 2B).\n(§4) Its molecular weight was about 2.1 kDa as determined by SDS-PAGE electrophoresis and its isoelectric point was about 8.9 (FIGS. 3A and 3B)."}, "S. enteritidis": {"test_system": "S. enteritidis", "test": "Spot Test, antagonistic activity of isolated signal peptides", "assay_type": "cell-based", "settings": "isolated signal peptide", "description": "as §1, §2, §3, §4"}, "[1]": {"test_system": "Lactobacillus salivarius PVD-32", "test": "Influence of signal peptide on bacteriocin OR-7 production, flask culture (fraction protein at 215 nm, activity by Spot Test against C. jejuni and S. enteritidis)", "assay_type": "cell-based", "settings": "for Activity / Protein Concentration / Protein increase vs. Control / Specific Activity / mg protein/liter: 10% B-B, producer PVD-32 + inducer LWP-252; for yield of bacteriocin OR-7 versus the control: signal peptide of another strain added to PVD-32 + LWP-252"}, "[2]": {"test_system": "Enterococcus faecium LWP 50-52", "test": "Bacteriocin 50-52 production with signal peptide under scaled-up cultivation (bioreactor)", "assay_type": "cell-based", "settings": "LWP 50-52 + LWP-320, 0.22 mg peptide added after 2 hours of cultivation, about 12 hours", "description": "as §1\nIsolation of bacteriocin 50-52 involved two steps: (1) the isolation of bacteriocin from the supernatant of the culture fluid and (2) the isolation of bacteriocin from the precipitate of cells of both the inducing and the producing strains. In step 1, the cultures were harvested and separated by centrifugation at about 10,000×g for about 15 minutes to precipitate the cells. The supernatant was applied to an Octyl Sepharose 4 Fast Flow column to recover the bacteriocin using an elution buffer of about 20 mM K2HPO4 buffer, pH approximately 7.0. The cell precipitate from step 2 was suspended in phosphate buffer with about 0.7% NaCl, pH approximately 5.6 (elution buffer) and the suspension was mixed and incubated for about 20 minutes. After incubation, the suspension was centrifuged at about 10,000×g for about 15 minutes. The bacteriocin was isolated from the supernatant using ion-exchange chromatography on Superose SP Fast Flow using an elution buffer containing about 10 mM Tris HCl and about 125 mM NaCl, pH approximately 7.5. Antagonistic activities of the bacteriocin fractions against C. jejuni and S. enteritidis were assessed in a spot-test. The level of purity of bacteriocins was determined by SDS-PAGE. The isoelectric points of the fractions were determined using isoelectricfocusing. Concentrations of protein for all bacteriocin fractions were determined at approximately 215 nm using a spectrophotometric method.\nTo evaluate influence of the signal peptide on bacteriocin production under scaled-up cultivation, producing and inducing strains were grown in a V-6 liter bioreactor containing about 6 liters of medium. The ratio of concentrations of cultures and the signal peptide was maintained as in Table 5 for the conditions of 10% Brucella Broth, LWP 50-52, LWP 320, 0.01 mg/ml of LWP 50-52 signal peptide added after about 2 hours of cultivation. Isolation of bacteriocin 50-52 was performed at about 8, 10, 12, and 14 hours of cultivation as described above. The control contained 10% Brucella Broth, LWP 50-52, LWP-320, at a pH of approximately 6.9, at about 37° C., and about 150 rpm. The bacteriocin 50-52 was isolated after about 12 hours of cultivation. For the second condition, the conditions were the same except that approximately 0.22 mg of LWP 50-52 signal peptide was added after 2 hours of cultivation. Each condition was repeated three times."}, "[3]": {"test_system": "Streptococcus cricetus LWP 760", "test": "Bacteriocin 760 production with signal peptide under scaled-up conditions (bioreactor)", "assay_type": "cell-based", "settings": "V-61 reactor, 10% Brucella Broth, LWP 760, LWP 320, peptide 0.22 mg added after two hours, pH 6.9, 37° C., 12 hours"}}}
{"sequence": "TNVTKSWWVLAGCNQVVASNCNCGNVKGLT (listed as Enterococcus faecium) [LWP 50-52 Signal Peptide, signal peptide isolated from Enterococcus faecium LWP 50-52, stimulates bacteriocin 50-52 production]", "values": [{"measurement": "antagonistic activity", "setting": "C. jejuni", "result": "did not possess antagonistic activity"}, {"measurement": "antagonistic activity", "setting": "S. enteritidis", "result": "did not possess antagonistic activity"}, {"measurement": "Activity", "setting": "[1]; LWP 50-52 peptide 0.1 mg", "result": "51,200 AU/ml"}, {"measurement": "Protein Concentration", "setting": "[1]; LWP 50-52 peptide 0.1 mg", "result": 0.17, "unit": "Mg/ml"}, {"measurement": "Protein increase vs. Control", "setting": "[1]; LWP 50-52 peptide 0.1 mg", "result": 0.85}, {"measurement": "Specific Activity", "setting": "[1]; LWP 50-52 peptide 0.1 mg", "result": "301,176 AU/mg"}, {"measurement": "mg protein/liter", "setting": "[1]; LWP 50-52 peptide 0.1 mg", "result": 56.1, "unit": "mg protein/liter"}, {"measurement": "yield of bacteriocin OR-7 versus the control", "setting": "[1]", "result": "does not increase"}, {"measurement": "Activity", "setting": "[2]", "result": "6,553,600 AU/ml"}, {"measurement": "Increase in the amount of protein vs. control", "setting": "[2]", "result": 4}, {"measurement": "Protein Concentration", "setting": "[2]", "result": 2.4, "unit": "mg/mL"}, {"measurement": "Specific Activity", "setting": "[2]", "result": "2,730,665 AU/mg"}, {"measurement": "Amount of Protein/liter of medium", "setting": "[2]; listed as LWP 50-52 signal Peptide", "result": 360, "unit": "mg"}, {"measurement": "Amount of Protein/liter of medium", "setting": "[2]; listed as LWP 50-52 signal peptide", "result": "about 360 mg"}]}
{"sequence": "WNKYKTNWVLSVCNTGCACAAVKGLT (listed as Streptococcus cricetus) [LWP 760 Signal Peptide, signal peptide isolated from Streptococcus cricetus LWP 760, stimulates bacteriocin 760 production]", "values": [{"measurement": "antagonistic activity", "setting": "C. jejuni", "result": "did not possess antagonistic activity"}, {"measurement": "antagonistic activity", "setting": "S. enteritidis", "result": "did not possess antagonistic activity"}, {"measurement": "Activity", "setting": "[3]", "result": "13,107,200 AU/ml"}, {"measurement": "Increase in the amount of protein produced vs. in control", "setting": "[3]", "result": 4.25}, {"measurement": "Protein Concentration", "setting": "[3]", "result": 3.4, "unit": "mg/mL"}, {"measurement": "Protein produced per one liter of medium", "setting": "[3]", "result": 510, "unit": "mg"}, {"measurement": "Specific Activity", "setting": "[3]", "result": "3,855,058 AU/mg"}, {"measurement": "Activity", "setting": "[1]; LWP 760 peptide 0.1 mg", "result": "102,400 AU/ml"}, {"measurement": "Protein Concentration", "setting": "[1]; LWP 760 peptide 0.1 mg", "result": 0.19, "unit": "Mg/ml"}, {"measurement": "Protein increase vs. Control", "setting": "[1]; LWP 760 peptide 0.1 mg", "result": 0.95}, {"measurement": "Specific Activity", "setting": "[1]; LWP 760 peptide 0.1 mg", "result": "538,947 AU/mg"}, {"measurement": "mg protein/liter", "setting": "[1]; LWP 760 peptide 0.1 mg", "result": 62.7, "unit": "mg protein/liter"}, {"measurement": "yield of bacteriocin OR-7 versus the control", "setting": "[1]", "result": "does not increase"}]}
